Our source for the IC50 values is US20230391786A1, “cGAS INHIBITORS” (Eli Lilly and Company, priority 2022, published 2023).

Assay [1] relates to cGAS activity in THP1 cells (IFNb as marker). The experiment in a line: Cellular assay to measure cGAS activity (IFNb production in PMA-differentiated THP1 cells stimulated by RDG-Adenovirus-GFP). The conditions noted are these: PMA differentiated, RDG-Adenovirus-GFP 1000 MOI, IFNb AlphaLISA, overnight incubation, read-out: IC50 (μM), Cellular assay for Compounds 95-348. Format: cell-based, human. The method in brief:
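PMA-differentiated THP1 cells were infected with RDG-Adenovirus-GFP at 1000 MOI for 4 h, then exposed overnight to test compounds. IFNb in the supernatant was quantified by AlphaLISA as a cGAS activity marker, and IC50 was fitted with a 4-parameter logistic equation.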

The next assay deals with recombinant human cGAS (Homo sapiens (Human), UniProt Q8N884). The experiment in a line: In vitro inhibition assay of cGAS activity (cGAMP production, RapidFire mass spectrometry). Format: biochemical. To be noted: 10 nM recombinant human cGAS, 60 nM 75-bp dsDNA, ATP, GTP, room temperature 3 hours, read-out: IC50 (μM), In vitro inhibition assay for Compounds 95-348. The method in brief: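 Full-length His6-tagged human cGAS (10 nM, E. coli-expressed) was incubated 3 h at room temperature with 60 nM 75-bp dsDNA, ATP, 50 μM GTP and compound at pH 7.5 with 5 mM MgCl2. cGAMP formation was measured by RapidFire mass spectrometry, and IC50 was taken from a 4-parameter logistic fit.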

The mark [2] stands for this setting: Homo sapiens, THP-1, THP1 cells.

Like-named read-outs stand apart in the source and are kept apart here. Bounds are passed on as bounds.

Chain of recombinant human cGAS (Q8N884 whole entry): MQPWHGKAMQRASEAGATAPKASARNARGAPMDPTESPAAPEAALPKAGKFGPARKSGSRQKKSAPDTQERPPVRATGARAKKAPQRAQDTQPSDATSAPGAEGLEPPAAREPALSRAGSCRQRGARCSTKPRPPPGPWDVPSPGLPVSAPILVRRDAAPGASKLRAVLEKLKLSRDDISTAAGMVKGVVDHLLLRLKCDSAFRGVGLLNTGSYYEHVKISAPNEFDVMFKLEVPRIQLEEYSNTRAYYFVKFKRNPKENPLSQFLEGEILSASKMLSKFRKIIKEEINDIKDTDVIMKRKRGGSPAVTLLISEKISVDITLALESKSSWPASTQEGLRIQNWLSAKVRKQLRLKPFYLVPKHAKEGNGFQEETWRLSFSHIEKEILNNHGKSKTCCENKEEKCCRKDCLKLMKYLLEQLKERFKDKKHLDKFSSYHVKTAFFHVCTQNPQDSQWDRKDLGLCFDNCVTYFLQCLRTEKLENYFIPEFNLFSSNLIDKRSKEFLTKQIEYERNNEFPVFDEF

For the compound `N#CCOc1cc(Cl)c(Cl)c2c1c(-c1cn[nH]c1)c1n2CCN(c2ncccn2)C1` [Example 204, 2-[[6,7-Dichloro-10-(1H-pyrazol-4-yl)-2-pyrimidin-2-yl-3,4-dihydro-1H-pyrazino[1,2-a]indol-9-yl]oxy]acetonitrile], the IC50 (commonly the midpoint of a concentration-inhibition curve) in assay [1] (setting [2]) stood at 0.854 µM; at recombinant human cGAS, 0.0201 µM.
As for `N#CCOc1cc(Cl)c(Cl)c2c1c(-c1cn[nH]c1)c1n2CCN(C(=O)[C@@H]2COCCO2)C1` [Example 285, (S)-2-((6,7-Dichloro-2-(1,4-dioxane-2-carbonyl)-10-(1H-pyrazol-4-yl)-1,2,3,4-tetrahydropyrazino[1,2-a]indol-9-yl)oxy)acetonitrile], the values for the IC50 (in assay [1] (setting [2]); at recombinant human cGAS) were 1.19 µM and 0.0126 µM, respectively.
As for `OCC(CO)COc1cc(Cl)c(Cl)c2[nH]cc(-c3cn[nH]c3)c12` [Example 194, 2-[[6,7-Dichloro-3-(1H-pyrazol-4-yl)-1H-indol-4-yl]oxymethyl]propane-1,3-diol], the IC50 in assay [1] (setting [2]) stood at 1.29 µM; on recombinant human cGAS, 0.0184 µM.
For the compound `O=C(Cc1[nH]c2c(Cl)c(Cl)ccc2c1-c1cn[nH]c1)NCc1cc[nH]n1` [Example 178, 2-[6,7-Dichloro-3-(1H-pyrazol-4-yl)-1H-indol-2-yl]-N-(1H-pyrazol-3-ylmethyl) acetamide], the IC50 is 3.62 µM in assay [1] (setting [2]) and 0.0413 µM on recombinant human cGAS.
With `OCCn1cc(-n2cc(-c3cn[nH]c3)c3ccc(Cl)c(F)c32)nn1` [Example 218, 2-[4-[6-Chloro-7-fluoro-3-(1H-pyrazol-4-yl)indol-1-yl]triazol-1-yl]ethanol], the concentration for half-maximal inhibition (IC50) in assay [1] (setting [2]) is 3.27 µM; on recombinant human cGAS it was 0.0679 µM.
The like results for `Cc1nc(C(=O)N2CCn3c(c(-c4cn[nH]c4)c4c(OCC#N)cc(Cl)c(Cl)c43)C2)no1` [Example 282, 2-((6,7-Dichloro-2-(5-methyl-1,2,4-oxadiazole-3-carbonyl)-10-(1H-pyrazol-4-yl)-1,2,3,4-tetrahydropyrazino[1,2-a]indol-9-yl)oxy)acetonitrile] were, in that order, 2.99 µM and 0.00896 µM.
The like results for `OCC(CO)CNc1cc(Cl)c(Cl)c2[nH]cc(-c3cn[nH]c3)c12` [Example 192, 2-[[[6,7-Dichloro-3-(1H-pyrazol-4-yl)-1H-indol-4-yl]amino]methyl]propane-1,3-diol] were, in that order, 1.29 µM and 0.0379 µM.
With `OCC(F)(F)CNc1cc(Cl)c(Cl)c2[nH]cc(-c3cn[nH]c3)c12` [Example 186, 3-[[6,7-Dichloro-3-(1H-pyrazol-4-yl)-1H-indol-4-yl]amino]-2,2-difluoro-propan-1-ol], the IC50 in assay [1] (setting [2]) turned out to be 0.909 µM; on recombinant human cGAS it was 0.0127 µM.
`Clc1ccc2c(-c3cn[nH]c3)c3n(c2c1Cl)CC(Nc1ncccn1)CC3` (centres unmarked) [Example 191, 3,4-Dichloro-10-(1H-pyrazol-4-yl)-N-pyrimidin-2-yl-6,7,8,9-tetrahydropyrido[1,2-a]indol-7-amine]: the IC50 was found to be 8.53 µM in assay [1] (setting [2]) and 0.0763 µM at recombinant human cGAS.
As for `OCC(F)CNc1cc(Cl)c(Cl)c2[nH]cc(-c3cn[nH]c3)c12` (centres unmarked) [Example 187, 3-[[6,7-Dichloro-3-(1H-pyrazol-4-yl)-1H-indol-4-yl]amino]-2-fluoro-propan-1-ol], the IC50 worked out at 0.326 µM in assay [1] (setting [2]) and 0.0104 µM on recombinant human cGAS.
Regarding `CNC(=O)CC(=O)NC1CCc2c(-c3cn[nH]c3)c3ccc(Cl)c(Cl)c3n2C1` (centres unmarked) [Example 141, N′-[3,4-Dichloro-10-(1H-pyrazol-4-yl)-6,7,8,9-tetrahydropyrido[1,2-a]indol-7-yl]-N-methyl-propanediamide], the figures for the 50% inhibitory concentration (IC50) (in assay [1] (setting [2]); at recombinant human cGAS) were 3.3 µM and 0.0275 µM, respectively.
For `FCCOc1cc(Cl)c(Cl)c2[nH]cc(-c3cn[nH]c3)c12` [Example 183, 6,7-Dichloro-4-(2-fluoroethoxy)-3-(1H-pyrazol-4-yl)-1H-indole], the IC50 in assay [1] (setting [2]) is 0.875 µM; at recombinant human cGAS, 0.0118 µM.
The like results for `CNC(=O)CCS(=O)(=O)NC1CCc2c(-c3cn[nH]c3)c3ccc(Cl)c(Cl)c3n2C1` (centres unmarked) [Example 118, 3-(N-(3,4-Dichloro-10-(1H-pyrazol-4-yl)-6,7,8,9-tetrahydropyrido[1,2-a]indol-7-yl)sulfamoyl)-N-methylpropanamide] were, in that order, 3.61 µM and 0.0165 µM.
Regarding `CN(C)C(=O)COCC(=O)N1CCn2c(c(-c3cn[nH]c3)c3ccc(Cl)c(Cl)c32)C1` [Example 301, 2-(2-(6,7-Dichloro-10-(1H-pyrazol-4-yl)-3,4-dihydropyrazino[1,2-a]indol-2(1H)-yl)-2-oxoethoxy)-N,N-dimethylacetamide], the IC50 was more than 10 µM in assay [1] (setting [2]) and 0.0291 µM at recombinant human cGAS.
Turning to `OCCCOc1cc(Cl)c(Cl)c2c1c(-c1cn[nH]c1)c1n2CC(O)CC1` (centres unmarked) [Example 348, 3,4-Dichloro-1-(3-hydroxypropoxy)-10-(1H-pyrazol-4-yl)-6,7,8,9-tetrahydropyrido[1,2-a]indol-7-ol], the IC50 in assay [1] (setting [2]) was 0.365 µM; at recombinant human cGAS, 0.00695 µM.
Take `O=C(NCc1[nH]c2c(Cl)c(Cl)ccc2c1-c1cn[nH]c1)C1(O)COC1` [Example 223, N-[[6,7-Dichloro-3-(1H-pyrazol-4-yl)-1H-indol-2-yl]methyl]-3-hydroxy-oxetane-3-carboxamide]: the values for the IC50 (in assay [1] (setting [2]); on recombinant human cGAS) were 3.2 µM and 0.0812 µM, respectively.
As for `O=C(CO)NC1CCn2c1c(-c1cn[nH]c1)c1ccc(Cl)c(Cl)c12` (single isomer, unassigned) [Example 346, N-(5,6-Dichloro-9-(1H-pyrazol-4-yl)-2,3-dihydro-1H-pyrrolo[1,2-a]indol-1-yl)-2-hydroxyacetamide], the IC50 in assay [1] (THP1 cells) was found to be 0.914 µM; on recombinant human cGAS it was 0.00769 µM.
For the compound `N#CCOc1cc(Cl)c(Cl)c2c1c(-c1cn[nH]c1)c1n2CCN(C(=O)c2nccnc2C(=O)N2CCCCC2)C1` [Example 295, 2-((6,7-Dichloro-2-(3-(piperidine-1-carbonyl)pyrazine-2-carbonyl)-10-(1H-pyrazol-4-yl)-1,2,3,4-tetrahydropyrazino[1,2-a]indol-9-yl)oxy)acetonitrile], the half-maximal inhibitory concentration (IC50) in assay [1] (setting [2]) came to 2.14 µM; at recombinant human cGAS, 0.0561 µM.
For the compound `O=C(Cc1cnccn1)NCc1[nH]c2c(Cl)c(Cl)ccc2c1-c1cn[nH]c1` [Example 112, N-((6,7-Dichloro-3-(1H-pyrazol-4-yl)-1H-indol-2-yl)methyl)-2-(pyrazin-2-yl)acetamide], the IC50 in assay [1] (setting [2]) came out at 1.56 µM; on recombinant human cGAS, 0.0361 µM.
The like results for `N#CCOc1cc(Cl)c(Cl)c2[nH]c(CO)c(-c3cn[nH]c3)c12` [Example 340, 2-((6,7-Dichloro-2-(hydroxymethyl)-3-(1H-pyrazol-4-yl)-1H-indol-4-yl)oxy)acetonitrile] were, in that order, 0.516 µM and 0.0102 µM.
Consider `O=C(CC1COCCO1)N1CCn2c(c(-c3cn[nH]c3)c3ccc(Cl)c(Cl)c32)C1` (centres unmarked) [Example 299, 1-(6,7-Dichloro-10-(1H-pyrazol-4-yl)-3,4-dihydropyrazino[1,2-a]indol-2(1H)-yl)-2-(1,4-dioxan-2-yl)ethan-1-one], for which the IC50 was more than 10 µM in assay [1] (setting [2]) and 0.0257 µM on recombinant human cGAS.
Consider `OCC(O)CNc1cc(Cl)c(Cl)c2[nH]cc(-c3cn[nH]c3)c12` (single isomer, unassigned) [Example 261, 3-[[6,7-Dichloro-3-(1H-pyrazol-4-yl)-1H-indol-4-yl]amino]propane-1,2-diol], for which the IC50 in assay [1] (setting [2]) came out at 2.34 µM; on recombinant human cGAS, 0.0452 µM.
With `N#CCOc1cc(Cl)c(Cl)c2c1c(-c1cn[nH]c1)c1n2CCN(C(=O)c2cnccn2)C1` [Example 286, 2-((6,7-Dichloro-2-(pyrazine-2-carbonyl)-10-(1H-pyrazol-4-yl)-1,2,3,4-tetrahydropyrazino[1,2-a]indol-9-yl)oxy)acetonitrile], the figures for the IC50 (in assay [1] (setting [2]); on recombinant human cGAS) were 0.455 µM and 0.0131 µM, respectively.
With `Cc1nnc(-c2[nH]c3c(Cl)c(Cl)ccc3c2-c2cn[nH]c2)s1` [Example 158, 2-(6,7-Dichloro-3-(1H-pyrazol-4-yl)-1H-indol-2-yl)-5-methyl-1,3,4-thiadiazole], the IC50 in assay [1] (setting [2]) worked out at 0.363 µM; at recombinant human cGAS it was 0.0507 µM.
Consider `COCCOCC(=O)N1CCn2c(c(-c3cn[nH]c3)c3ccc(Cl)c(Cl)c32)C1` [Example 306, 1-(6,7-Dichloro-10-(1H-pyrazol-4-yl)-3,4-dihydropyrazino[1,2-a]indol-2(1H)-yl)-2-(2-methoxyethoxy)ethan-1-one], for which the IC50 in assay [1] (setting [2]) was more than 10 µM; on recombinant human cGAS, 0.0379 µM.
With `CC(=O)NCCn1cc(-c2cn[nH]c2)c2c(NCCCO)cc(Cl)c(Cl)c21` [Example 195, N-[2-[6,7-Dichloro-4-(3-hydroxypropylamino)-3-(1H-pyrazol-4-yl)indol-1-yl]ethyl]acetamide], the IC50 in assay [1] (setting [2]) turned out to be 1.23 µM; on recombinant human cGAS, 0.0298 µM.
For `O=C(Nc1cc(Cl)c(Cl)c2[nH]cc(-c3cn[nH]c3)c12)C(F)F` [Example 171, N-[6,7-Dichloro-3-(1H-pyrazol-4-yl)-1H-indol-4-yl]-2,2-difluoro-acetamide], the half-inhibitory concentration (IC50) in assay [1] (setting [2]) came out at 0.0689 µM; at recombinant human cGAS, 0.00356 µM.
Regarding `O=C(Cn1cnnc1)NCc1[nH]c2c(Cl)c(Cl)ccc2c1-c1cn[nH]c1` [Example 103, N-((6,7-Dichloro-3-(1H-pyrazol-4-yl)-1H-indol-2-yl)methyl)-2-(4H-1,2,4-triazol-4-yl)acetamide], the IC50 in assay [1] (setting [2]) is more than 10 µM; on recombinant human cGAS it was 0.051 µM.
